Like-named read-outs stand apart in the source and are kept apart here.
Legend:
[1] = test system: leukocyte-endothelial interactions in the iridial microcirculation; test: Endotoxin-induced uveitis (EIU), intravital microscopy of iridial microcirculation, WT mice; type: in vivo, BALB/c mice; details: WT mice, topical 1.5% w/v (5 µL/animal), 6 h after intravitreal LPS, vs LPS + vehicle
Description: EIU was induced in BALB/c mice using an intravitreal injection of LPS (2 μL; 125 ng/μL; E. coli 0111:B4 L084M4118V; Sigma-Aldrich, Oakville, ON, Canada) in saline,. Animals were anesthetized with isoflurane (4% induction, 2% maintenance), and were injected intravitreally through the pars plana with sterile saline (control) or LPS solution using a 30G needle and Hamilton syringe (Hamilton Company, Reno, NV, USA) with the assistance of a WILD M37 dissecting microscope (Leitz Canada, Kitchener, ON, Canada). The puncture wound was glued shut with 3M Vetbond Tissue Adhesive (3M Animal Products, St. Paul, MN, USA), and animals were allowed to recover.
IVM was conducted as previously described in Toguri et al. (2014). The iridial microcirculation was imaged 6 h after induction of EIU. Animals were anesthetized with pentobarbital (i.p., 54 mg/kg). Fifteen minutes before initiating IVM, 0.05% Rhodamine 6G (1.5 mL/kg; Sigma-Aldrich) was injected intravenously (i.v.) to visualize leukocytes within the vasculature, while 5% fluorescein isothiocyanate (FITC) conjugated albumin (i.v., 1 mL/kg; Sigma-Aldrich) was used to visualize blood flow. The iridial microcirculation was observed using an Olympus OV100 Small Animal Imaging System (Olympus, Tokyo, Japan), which contains an MT-20 light source, fluorescence excitation from a xenon lamp (150 W) and an excitation filter for rhodamine-6G (excitation 515–560 nm, emission 590 nm). Images were captured in real-time by a black and white DP70 CCD C-mount camera and digitally recorded using HCImage software (Hamamatsu, Herrsching, Germany).
During IVM animals were placed on a heating pad in a stereotactic frame, and Tear-Gel® (Novartis Pharmaceuticals Canada Inc., Dorval, QC, Canada) was applied to their cornea. The iris was divided into four equal quadrants by drawing two superficial lines on the cornea, lengthwise and widthwise. IVM was carried out in each of these quadrants. Two to four videos of each quadrant were recorded for 30 s each. Videos were analyzed off-line without knowledge of the treatment groups. […] Using ImageJ software (National Institute of Health, Bethesda, MD, USA) the number of adherent leukocytes within each vessel segment was calculated by measuring the diameter and length of vessel segment studied, assuming a cylindrical geometry of blood vessels. Adherent leukocytes were expressed as number of cells per mm^2 of endothelial surface. Rolling leukocytes were classified as cells that moved along the endothelium and crossed a predetermined cross-sectional line of the venule. The number of rolling leukocytes was counted for 30 s and used to calculate the number of rolling leukocytes per min. IVM was conducted 6 h after induction of EIU.
RO6871304, RO6871085, or RO6851228 were applied topically on the left eye (1.5% w/v; 5 μL/animal)) directly after injection of LPS in the same eye. Control animals received vehicle (Tocrisolve) (5 μL/animal) only. HU910 was dissolved for i.v. administration in mixed micelles.

[2] = target: CYP2C9 (Homo sapiens, UniProt P11712); test: Cytochrome P450 inhibition assay, CYP2C9; type: in vitro ADME; details: read-out: IC50 CYP2C9
[3] = Saturation solubility in selected solvents/vehicles; type: physicochemical; details: for solubility: thermodynamic from solid, n = 1
Description: Saturation Solubility (= Thermodynamic Solubility)
Approximately 8.6 mg test compound per milliliter solvent/vehicle was stirred in HPLC vials (9 × 12 × 32 mm, Waters) at 350 rpm for 15 h. Samples of 10 µL each were taken and microscopically examined for presence of solid particles. If the active pharmacological ingredient (API) dissolved completely, more solid API was added, and stirring was continued for another 15 h. Addition of solid material was repeated up to 96 h or until residual solid particles could be detected. Samples of 0.5 mL were then transferred to Eppendorf Ultrafree filter tubes (Filter: PVDF 0.22 µm) and centrifuged at 14,500 rpm for 10 min. The filtrates were diluted in ethanol and analyzed for content by UPLC. The measurements were also conducted in 0.05 M aqueous phosphate buffer, fasted (FaSSIF), and fed (FeSSIF) simulated gastrointestinal fluid. […]

[4] = target: T1, human CB2R (Homo sapiens, UniProt P34972); details: cited from earlier work
T1 construct: bgal (beta-galactosidase fragment of the PathHunter system, named only in the cell line's name); host or cells: CHO-K1 (CHOK1hCB2_bgal)

[5] = target: T2, human CB1R (Homo sapiens, UniProt P21554); details: * previously published, cited from earlier work
T2 construct: host or cells: CHO

[6] = target: T2, human CB1R; details: * previously published; read-out: hCB1R: beta arrestin EC50; cited from earlier work
[7] = * previously published; cited from earlier work
[8] = human hepatocytes; * previously published; cited from earlier work
[9] = test system: human P-gp; details: cited from earlier work
[10] = solubility sample, RO6871085 as hydrochloride salt
[11] = underlying data previously published

T2 sequence (P21554 whole entry): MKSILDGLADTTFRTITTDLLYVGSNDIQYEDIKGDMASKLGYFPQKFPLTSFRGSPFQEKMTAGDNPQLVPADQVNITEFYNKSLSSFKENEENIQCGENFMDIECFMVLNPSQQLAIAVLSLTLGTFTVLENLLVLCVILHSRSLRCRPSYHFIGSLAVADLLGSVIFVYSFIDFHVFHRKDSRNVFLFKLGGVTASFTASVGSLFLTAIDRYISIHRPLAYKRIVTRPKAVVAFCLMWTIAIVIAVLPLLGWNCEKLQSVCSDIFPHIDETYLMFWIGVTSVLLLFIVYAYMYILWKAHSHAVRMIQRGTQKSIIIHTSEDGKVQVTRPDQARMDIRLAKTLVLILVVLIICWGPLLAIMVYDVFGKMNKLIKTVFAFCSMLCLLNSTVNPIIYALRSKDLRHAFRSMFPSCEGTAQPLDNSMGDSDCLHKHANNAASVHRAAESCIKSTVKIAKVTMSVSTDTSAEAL
T1 sequence (P34972 whole entry, the tested form may be a part): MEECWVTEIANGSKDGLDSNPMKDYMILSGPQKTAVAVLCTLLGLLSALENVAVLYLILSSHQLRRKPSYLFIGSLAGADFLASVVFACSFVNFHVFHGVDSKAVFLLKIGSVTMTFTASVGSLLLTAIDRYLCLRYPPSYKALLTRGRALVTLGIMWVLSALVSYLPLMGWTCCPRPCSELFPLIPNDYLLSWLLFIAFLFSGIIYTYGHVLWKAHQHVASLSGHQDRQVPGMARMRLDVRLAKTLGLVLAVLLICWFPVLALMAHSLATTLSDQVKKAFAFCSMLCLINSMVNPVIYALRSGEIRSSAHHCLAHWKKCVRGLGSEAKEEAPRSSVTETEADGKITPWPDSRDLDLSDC
Chain of CYP2C9 (P11712 whole entry): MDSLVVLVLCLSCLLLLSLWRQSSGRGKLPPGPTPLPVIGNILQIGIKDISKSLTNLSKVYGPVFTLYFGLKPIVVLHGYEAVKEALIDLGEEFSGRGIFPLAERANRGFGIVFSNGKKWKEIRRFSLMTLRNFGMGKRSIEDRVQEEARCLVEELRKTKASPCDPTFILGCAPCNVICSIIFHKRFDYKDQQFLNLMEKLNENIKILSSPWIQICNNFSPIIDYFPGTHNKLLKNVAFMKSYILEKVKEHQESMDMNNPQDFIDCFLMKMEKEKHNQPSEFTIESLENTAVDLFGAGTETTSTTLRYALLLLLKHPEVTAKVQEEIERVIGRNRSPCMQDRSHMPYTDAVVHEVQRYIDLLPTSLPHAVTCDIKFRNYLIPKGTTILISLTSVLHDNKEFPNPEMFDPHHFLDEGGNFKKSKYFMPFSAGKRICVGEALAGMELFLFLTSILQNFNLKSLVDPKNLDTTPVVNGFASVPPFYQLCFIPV

For `Cc1nc([C@](C)(CC2CC2)NC(=O)c2cc(OCC(F)(F)F)c(C3CC3)cn2)no1` [RO6871085, 5-Cyclopropyl-N-[(2S)-1-cyclopropyl-2-(5-methyl-1,2,4-oxadiazol-3-yl)propan-2-yl]-4-(2,2,2-trifluoroethoxy)pyridine-2-carboxamide], the “adherent leukocytes in the iridial microcirculation” value [1] was “significantly attenuated”, the IC50 [2] was 8 µM and the “solubility in Tocrisolve 100” value [3] was “good solvent”. For the same compound, the solubility ([3]; aqueous with cosolvent or surfactant or cyclodextrin, RO6871085 as hydrochloride salt, HU308 crystalline material, > = saturation not achieved, read-out: Solubility in Tocrisolve) was over 30000 µg/mL, the solubility ([3]; oil or lipid, RO6871085 as hydrochloride salt, HU308 crystalline material, > = saturation not achieved, read-out: Solubility in MCT (Miglyol 812)) was 2300 µg/mL and the solubility ([3]; pH 6, aqueous with cosolvent or surfactant or cyclodextrin, 200 mM glycocholic acid, 200 mM lecithin in water for injection, pH 6, RO6871085 as hydrochloride salt, read-out: Solubility in Mixed Micelles) was 200 µg/mL. The “pH of solution in Mixed Micelles” value [3, 10] was 6.1, the “pH of solution in Tocrisolve” value [3, 10] was 1.2 and the EC50 ([4]; * previously published, read-out: hCB2R: cAMP EC50) was 0.008 µM. For the same compound, the “hCB1R cAMP EC50/hCB2R cAMP EC50” value ([4]; functional selectivity, * previously published) was 174 *, the “hCB2R: cAMP efficacy” value ([4]; relative to 1 µM CP55940, * previously published) was 88% and the “functional behaviour in hCB2R cAMP assay” value [4, 11] was “full agonists”. The EC50 ([5]; read-out: hCB1R: cAMP EC50) was 1.45 µM, the “hCB1R: cAMP efficacy” value ([5]; second number of the cell, relative to 1 µM CP55940) was 38% and the EC50 [6] was over 30 µM. The “LogD (at pH 7.4)” value [7] was 3.94, the “Hepatocyte Clearance human” value [8] was 17 μL/min/Mio cells and the “P-glycoprotein-Mediated Efflux Extraction Ratio human” value ([9]; human P-gp, * previously published) was 1.4. The “P-gp substrate, human” value [9, 11] was “not a P-gp substrate”.

— paper PMC6767236, “Selective Cannabinoid 2 Receptor Agonists as Potential Therapeutic Drugs for the Treatment of Endotoxin-Induced Uveitis” (Molecules, 2019)
